Measured values: patent US20240207192A1, “PHARMACEUTICAL COMPOSITIONS CONTAINING A PIPERIDINYL-METHYL-PURINE AMINE AND THEIR USE IN TREATING DISEASES AND CONDITIONS” (K36 THERAPEUTICS, INC., priority 2022, published 2024)
Where a name gives a salt, the structure may show the parent alone.

How the values were obtained:
Type in all cases: physicochemical
[1] = Storage stability of Formulations 5, 6 and 7, related substances by HPLC
Protocol: An aliquot of each of Formulation 5, 6, and 7 was subjected to stability testing. In particular, an amount of each formulation sufficient to provide 11.4 mg of Compound 1 was transferred to a glass vial bottle and then the bottle was capped. The glass vials were stored at (a) 40° C./NMT 25% relative humidity or (b) 40° C./75% relative humidity. Samples were analyzed by HPLC to determine the amount of related substances in the formulation.
(§1) Table 2 presents results for samples stored at 40° C./25% relative humidity. Table 3 presents results for samples stored at 40° C./75% relative humidity.

[2] = Storage stability of Formulations 1 to 4, related substances by HPLC; settings: 40° C./75% relative humidity, capped glass vials
Protocol: An aliquot of each of Formulation 1, 2, 3, and 4 was subjected to stability testing. In particular, an amount of each formulation sufficient to provide 11.4 mg of Compound 1 was transferred to glass vials and then the vials were capped. The glass vials were stored at 40° C./75% relative humidity for three to six weeks. Samples were analyzed by HPLC to determine the amount of related substances in the formulation.

[3] = Storage stability of Formulations 8, 9 and 10, related substances
Protocol: An aliquot of each of Formulation 8, 9, and 10 was subjected to stability testing. In particular, an amount of each formulation sufficient to provide 14.3 mg of Compound 2 was transferred to a glass vial and then the vial was capped. The glass vials were stored at (a) 40° C./NMT 25% relative humidity or (b) 40° C./75% relative humidity. Samples were analyzed to determine the amount of related substances in the formulation.
as §1

[4] = 40° C./25% (NMT 25%) relative humidity

SMILES | Percentage of Related Substances in the Formulation (% as determined by HPLC), 2 Weeks Storage [1, 4] [%] | Percentage of Related Substances in the Formulation (% as determined by HPLC), 4 Weeks Storage ([1]; 40° C./25% (NMT 25%) relative humidity, 4 weeks) [%] | Percentage of Related Substances in the Formulation (% as determined by HPLC), 2 Weeks Storage ([1]; 40° C./75% relative humidity) [%] | Percentage of Related Substances in the Formulation (% as determined by HPLC), 6 Weeks Storage ([1]; 40° C./75% relative humidity, 6 weeks) [%] | Percentage of Related Substances in the Formulation (% as Determined by HPLC), 3 Weeks Storage ([2]; 3 weeks) [%] | Percentage of Related Substances in the Formulation (% as determined by HPLC), 6 Weeks Storage ([2]; 6 weeks) [%] | Percentage of Related Substances in the Formulation (% as determined by HPLC), 2 Weeks Storage [3, 4] [%] | Percentage of Related Substances in the Formulation (% as determined by HPLC), 4 Weeks Storage [3, 4] [%] | Percentage of Related Substances in the Formulation (% as determined by HPLC), 6 Weeks Storage [3, 4] [%] | Percentage of Related Substances in the Formulation (% as determined by HPLC), 2 Weeks Storage ([3]; 40° C./75% relative humidity) [%] | Percentage of Related Substances in the Formulation (% as determined by HPLC), 4 Weeks Storage ([3]; 40° C./75% relative humidity) [%] | Percentage of Related Substances in the Formulation (% as determined by HPLC), 6 Weeks Storage ([3]; 40° C./75% relative humidity) [%]
COc1cc(F)c(-c2cc(Cn3cnc4c(N)ncnc43)c(N3CCC[C@](N)([C@H](O)C(F)F)C3)cn2)cc1F [Compound 1, (S)-1-((R)-3-amino-1-(4-((6-amino-9H-purin-9-yl)methyl)-6-(2,5-difluoro-4-methoxyphenyl)pyridin-3-yl)piperidin-3-yl)-2,2-difluoroethan-1-ol D-Tartrate] | 0.56 | 0.57 | 0.57 | 0.57 | 0.42 | 0.41 | – | – | – | – | – | –
COc1cc(F)c(-c2cc(Cn3cnc4c(N)ncnc43)c(N3CCC[C@](N)([C@H](O)C(F)F)C3)cn2)cc1F [Compound 2, (S)-1-((R)-3-amino-1-(4-((6-amino-9H-purin-9-yl)methyl)-6-(2,5-difluoro-4-methoxyphenyl)pyridin-3-yl)piperidin-3-yl)-2,2-difluoroethan-1-ol Fumarate] | – | – | – | – | – | – | 0.55 | 0.55 | 0.56 | 0.55 | 0.56 | 0.55
